Values quoted from earlier work in patent US8268549B2, “Method and assay for determining methylation of GAL3 promoter for early diagnosis of prostate cancer” (University of Maryland, Baltimore, priority 2005, dated 2012).

Test system: galectins

| relative binding affinity, times less effective than lactose (Lac) (galectins) [times] | SMILES | ligand quality for chimera galectins (chimera galectins) |
| --- | --- | --- |
| ~200 | O=C[C@H](O)[C@@H](O)[C@@H](O)[C@H](O)CO [D-galactose] |  |
|  | CC(=O)N[C@@H]1[C@@H](O[C@@H]2O[C@H](CO)[C@H](O)[C@H](O)[C@H]2O)[C@@H](O)[C@@H](CO)O[C@@H]1O [T-disaccharide] | good ligand |
